In patent publication US6395260B1, “Topical cosmetic compositions comprising benzaldoximes” (Haarmann & Reimer GmbH, priority 1999, dated 2002):

| SMILES | melting point |
| --- | --- |
| ON=Cc1cc(O)c(O)c(O)c1 [Test compound 2, 3,4,5-trihydroxybenzaldoxime] | 177 °C (dec.) |
| CCON=Cc1ccc(OC)c(O)c1 [Test compound 3, 3-hydroxy-4-methoxybenzaldehyde O-ethyloxime] | 61.4 °C |
| CCON=Cc1ccc(O)c(OCC)c1 [Test compound 4, 3-ethoxy-4-hydroxybenzaldehyde O-ethyloxime] | 43 °C |
| ON=Cc1ccc(O)c(O)c1 [Test compound 5, 3,4-dihydroxybenzaldoxime] | 143 °C (dec.) |
| COc1ccc(C=NO)cc1O [Test compound 6, 3-hydroxy-4-methoxybenzaldoxime] | 142.4 °C |
| CCON=Cc1ccc(O)c(OC)c1 [Test compound 7, 4-hydroxy-3-methoxybenzaldehyde O-ethyloxime] | 31.7 °C |
| Cc1ccc(CON=Cc2ccc(O)c(O)c2)cc1 [Test compound 8, 3,4-dihydroxybenzaldehyde O-(4-methylbenzyl)-oxime] | 85 to 86 °C |
| CCOc1cc(C=NO)ccc1O [Test compound 9, 3-ethoxy-4-hydroxybenzaldoxime] | 189 °C (dec.) |
| COc1cc(C=NO)ccc1O [Test compound 10, 4-hydroxy-3-methoxybenzaldoxime] | 118.2 °C |
| CCON=Cc1ccc(O)c(O)c1 [Test compound 11, 3,4-dihydroxybenzaldehyde O-ethyloxime] | 23 °C |
